One assay concerns the target T1, PLA2G16 (Homo sapiens, UniProt P53816).
T1 construct: Hexa-His (N); made in house; host or cells: E. coli BL21(DE3)
T1 sequence (P53816 1-162): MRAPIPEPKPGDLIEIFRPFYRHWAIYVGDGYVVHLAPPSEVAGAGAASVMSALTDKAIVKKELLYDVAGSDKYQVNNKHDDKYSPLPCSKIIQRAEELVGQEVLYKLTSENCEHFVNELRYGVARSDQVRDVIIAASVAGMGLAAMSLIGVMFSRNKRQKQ
In words: Enzyme activity assay for PLA2G16 (Red/Green BODIPY PC-A2 fluorescence). The assay is classed as biochemical. The following applies: His-tagged PLA2G16, 4 min pre-incubation, compound 2 nM to 50 μM; first symbol in parentheses. From the text:
Purification and Enzyme Activity Assay for PLA2G16
A cDNA for PLA2G16 (NM_007069) was custom-synthesized by Genscript (Piscataway, USA) and inserted into a pET-based bacterial expression vector [Moffatt, B. A. and Studier, F. W. (1986) J. Mol. Biol. 189, 113-130; Rosenberg, A. H., Lade, B. N., Chui, D., Lin, S., Dunn, J. J., and Studier, F. W. (1987) Gene 56, 125-135], enabling the expression of N-terminally Hexa-His-tagged PLA2G16. E. coli BL21(DE3) (Agilent) were transformed with pET-His-PLA2G16 according to the manufacturer's instructions and plated on Carbenicillin-containing agar plates (final concentration: 100 μg/mL). A single clone was inoculated in 100 mL LB medium supplemented with 100 μg/mL Carbenicillin and the inoculated culture was grown at 37° C. overnight in a rotary shaker. On the next day, the bacterial culture was diluted in LB medium supplemented with 100 μg/mL Carbenicillin (30 mL overnight culture in 800 mL total culture volume). Bacteria were grown at 37° C. until the OD600 reached 0.6. Gene expression was induced by addition of 1 mM isopropyl-β-D-thiogalactopyranosid (IPTG) for 2 h at 18° C. Subsequently, bacteria were harvested by centrifugation (15 min; 10,000×g; 4° C.) and frozen at −80° C. The bacterial pellet was resuspended in Buffer A (50 mM Tris/HCl pH 7.5, 500 mM NaCl, 5% glycerol, 5 mM β-Mercaptoethanol and 1 mM PMSF) and lysed by addition of 1 mg/mL lysozyme (Sigma Aldrich) and 100 μg/mL DNasel-(Roche). The sample was incubated at 30° C. for 30 min to allow lysis to occur. Then, the lysate was cleared by centrifugation (15,000×g, 15 min, 4° C.) and incubated with 1.5 mL Ni-NTA agarose suspension (Qiagen) for 60 min at 4° C. The Ni-NTA agarose was washed with 10 mL Buffer A. Bound protein was eluted by applying a manual gradient of Buffer A supplemented with increasing concentrations of imidazole (Sigma Aldrich; 25/50/75/100/250 mM). Purified fractions were analyzed by SDS-PAGE followed by Coomassie staining to assess the purity.
Activity of the protein was assessed as follows:
Red/Green BODIPY® PC-A2 (Invitrogen, 1 mM in DMSO) was mixed with equal volumes of 1,2-Dioleoyl-sn-glycero-3-phosphocholine (DOPC; Sigma Aldrich, 10 mM in Ethanol) and 1,2-Dioleoyl-sn-glycero-3-phospho-rac-(1-glycerol) (DOPG; Sigma Aldrich, 10 mM in Ethanol) and 0.5 volumes of Cholesterol (CHOL; Sigma Aldrich, 10 mM in Ethanol) and vortexed for 5 s. The mixture (Red/Green BODIPY® PC-A2/DOPC/DOPG/CHOL) was diluted 1:91.4 in activity assay buffer (50 mM Tris/HCl pH 8.5, 100 mM NaCl) using a small-orifice pipette tip under constant vortexing. In the following, this preparation will be referred to as the “substrate solution”.
In order to evaluate their inhibitory potential, compounds were dissolved at 10 mM concentration in DMSO and directly spotted into assay plates (Corning, Cat. No. 3576) using acoustic liquid transfer (Labcyte Echo 525). Each compound was spotted at increasing concentrations, ranging from 2 nM to 50 μM (concentration in the final assay volume). 50 μl of PLA2G16 enzyme solution (diluted in activity buffer, supplemented with 5 mM L-Glutathione; Sigma Aldrich) was pre-incubated with compounds for 4 min., followed by addition of 50 μl of substrate solution. Fluorescence was recorded immediately after substrate addition for a total time of 10 min. using a SpectraMax M5 multimode reader (Excitation wavelength: 480 nm, emission wavelength: 530 nm). The relative increase of fluorescence over time is referred to as the enzyme activity. Half-maximal inhibitory concentrations (IC50) were derived by non-linear regression analysis using the drc package in R (R Development. Core Team, 2005).

For assay [1], the system named is picornaviruses (CVB1, HRV-A2, HRV-A23, EV-68). In words: Anti-picornavirus cytopathic effect (CPE) reduction assay on HeLa H1 cells. The format is cell-based. The conditions noted are these: 48 h, category from averaging EC50 values of four picornaviruses (CVB1, HRV-A2, HRV-A23, EV68), second symbol in parentheses. As for the experimental part:
Anti-Picornavirus Assay in Mammalian Cell Culture
The antiviral activity of selected compounds was tested using a cytopathic effect (CPE) reduction assay on HeLa H1 cells (ATCC CRL-1958). Briefly, cells were seeded in 96-well dishes (2×10^4 cells/well) in DMEM medium (Life technologies) supplemented with 10% FBS and PenStrep solution (100 U/mL Penicillin and 100 μg/mL streptomycin) and incubated at 37° C., 5% CO2 overnight. The next day, cells were pre-treated with serial dilutions of the compound in DMEM medium supplemented with 2% FBS and PenStrep for 2 h at 37° C., 5% CO2. Next, cells were infected with virus (CVB1, HRV-A2, HRV-A23, EV-68) at an multiplicity of infection (MOI) which results in a complete virus-induced CPE within 2 days in control wells (infected and vehicle-treated). After 48 h, supernatants were aspirated and 50 μl/well of CellTiterBlue reagent (Promega) diluted 1:5 in DMEM+2% FBS, was added to the cells. Plates were returned to the incubator and allowed to develop for 1.5 h. After that, plates were equilibrated to RT and subsequently, fluorescence was recorded (Excitation wavelength: 560 nm; emission wavelength: 590 nm) using a SpectraMax M5 multimode plate reader. Viability of cells was calculated according to the formula: V=(RFUCpd−RFUVeh/(RFUM−RFUVeh), where RFUCpd refers to infected and compound-treated cells, RFUVeh to infected and vehicle-treated cells and RFUM to uninfected and vehicle treated cells. Half-maximal effective concentrations (EC50) were calculated by non-linear regression analysis using the drc package in R (R Development. Core Team, 2005). EC50 categories as presented in Table 2 were calculated by averaging the EC50 values from four picornaviruses (CVB1, HRV-A2, HRV-A23, EV68).
On the technique in general: Cytopathic effects are the visible damage that an infection or toxin causes in cultured cells.

SMILES strings stand for the structures. pEC50, pIC50: −log10 of the molar value.

Consider `CCNC(=O)C(=O)[C@H]1CN(c2ncccn2)C(=O)[C@@H]1Cc1ccccc1` (racemic) [FP-59, Rac-2-[(3R,4R)-4-benzyl-5-oxo-1-(pyrimidin-2-yl)pyrrolidin-3-yl]-N-ethyl-2-oxo-acetamide], for which, at PLA2G16, the negative-log IC50 (pIC50) is greater than 6.00. The pEC50 in assay [1] is 5.00 to 6.00.

As to `CC(F)(F)CNC(=O)C(=O)[C@H]1CN(c2cncnc2C#N)C(=O)[C@@H]1Cc1ccccc1` (racemic) [FP-66, Rac-2-[(3R,4R)-4-benzyl-1-(4-cyanopyrimidin-5-yl)-5-oxopyrrolidin-3-yl]-N-(2,2-difluoropropyl)-2-oxoacetamide], the pIC50 on PLA2G16 was greater than 6.00. Besides, the pEC50 in assay [1] was 5.00 to 6.00.

On to `O=C(NC1CC1)C(=O)[C@H]1CNC(=O)[C@@H]1c1ccccc1` (racemic) [FP-14, Rac-N-cyclopropyl-2-oxo-2-[(3R,4S)-5-oxo-4-phenylpyrrolidin-3-yl]acetamide], for which the negative-log IC50 (pIC50) at PLA2G16 is greater than 6.00. The negative-log EC50 (pEC50) in assay [1] is 5.00 to 6.00.

With `Cc1cc(CN2C[C@H](C(=O)C(=O)NC3CC3)[C@@H](Cc3ccccc3)C2=O)on1` (racemic) [FP-46, Rac-2-[(3R,4R)-4-benzyl-1-[(3-methyl-1,2-oxazol-5-yl)methyl]-5-oxopyrrolidin-3-yl]-N-cyclopropyl-2-oxoacetamide], the pIC50 on PLA2G16 is greater than 6.00. For the same compound, the negative logarithm of the EC50 (pEC50) in assay [1] is 5.00 to 6.00.

Consider `N#Cc1ncncc1N1C[C@H](C(=O)C(=O)NC2CC2)[C@@H](Cc2ccccc2)C1=O` (racemic) [FP-65, Rac-2-[(3R,4R)-4-benzyl-1-(4-cyanopyrimidin-5-yl)-5-oxopyrrolidin-3-yl]-N-cyclopropyl-2-oxoacetamide], for which, at PLA2G16, the negative logarithm of the IC50 (pIC50) was greater than 6.00. The negative-log EC50 (pEC50) in assay [1] was 5.00 to 6.00.

For the compound `CCNC(=O)C(=O)[C@H]1CN(c2cncnc2)C(=O)[C@@H]1Cc1ccccc1` (racemic) [FP-55, Rac-2-[(3R,4R)-4-benzyl-5-oxo-1-(pyrimidin-5-yl)pyrrolidin-3-yl]-N-ethyl-2-oxo-acetamide], the pIC50 on PLA2G16 was greater than 6.00. Also, in assay [1], the negative logarithm of the EC50 (pEC50) was greater than 6.00.

For the compound `CC(C)CNC(=O)C(=O)[C@H]1CN(CC(=O)N(C)C)C(=O)[C@@H]1Cc1ccccc1` (racemic) [FP-44, Rac-2-[(3R,4R)-3-benzyl-4-{[(2-methylpropyl)carbamoyl]carbonyl}-2-oxopyrrolidin-1-yl]-N,N-dimethylacetamide], the pIC50 at PLA2G16 was greater than 6.00. Besides, the negative logarithm of the EC50 (pEC50) in assay [1] is greater than 6.00.

Consider `COc1ccc(CN2C[C@H](C(=O)C(=O)NC3CC3)[C@@H](c3ccccc3)C2=O)cc1` (racemic) [FP-102, Rac-N-cyclopropyl-2-[(3R,4S)-1-[(4-methoxyphenyl)methyl]-5-oxo-4-phenylpyrrolidin-3-yl]-2-oxoacetamide], for which, at PLA2G16, the pIC50 was greater than 6.00. For the same compound, the negative logarithm of the EC50 (pEC50) in assay [1] is greater than 6.00.

As for `O=C(NC1CC1)C(=O)[C@H]1CN(c2ccnc(Cl)n2)C(=O)[C@@H]1Cc1ccccc1` (racemic) [FP-60, Rac-2-[(3R,4R)-4-benzyl-1-(2-chloropyrimidin-4-yl)-5-oxopyrrolidin-3-yl]-N-cyclopropyl-2-oxoacetamide], the negative logarithm of the IC50 (pIC50) on PLA2G16 is greater than 6.00. Besides, the pEC50 in assay [1] is 5.00 to 6.00.

As to `CC(C)CNC(=O)C(=O)[C@H]1CN(CC(=O)N(C)C)C(=O)[C@@H]1Cc1ccccc1` (single isomer, unassigned) [FP-92], the negative logarithm of the IC50 (pIC50) at PLA2G16 is greater than 6.00. Besides, the pEC50 in assay [1] is 5.00 to 6.00.

With `O=C(NC1CC1)C(=O)[C@H]1CN(c2cnccn2)C(=O)[C@@H]1Cc1ccccc1` (single isomer, unassigned) [FP-93], on PLA2G16, the pIC50 is greater than 6.00. Moreover, the negative logarithm of the EC50 (pEC50) in assay [1] is greater than 6.00.

Turning to `CCNC(=O)C(=O)[C@H]1CN(CC(F)F)C(=O)[C@@H]1Cc1ccccc1` (racemic) [FP-50, Rac-2-[(3R,4R)-4-benzyl-1-(2,2-difluoroethyl)-5-oxopyrrolidin-3-yl]-N-ethyl-2-oxoacetamide], the pIC50 on PLA2G16 was greater than 6.00. The negative logarithm of the EC50 (pEC50) in assay [1] is greater than 6.00.

Regarding `O=C(NC1CC1)C(=O)[C@H]1CN(CC2CCOCC2)C(=O)[C@@H]1Cc1ccccc1` (racemic) [FP-32, Rac-2-[(3R,4R)-4-benzyl-1-[(oxan-4-yl)methyl]-5-oxopyrrolidin-3-yl]-N-cyclopropyl-2-oxoacetamide], the negative-log IC50 (pIC50) at PLA2G16 was greater than 6.00. The negative logarithm of the EC50 (pEC50) in assay [1] was greater than 6.00.

The term pIC50 denotes −log10 of the IC50, conventionally taken in molar units. What is called pEC50 is the negative decadic logarithm of the EC50, by convention in mol/L.

The values are drawn from US11180479B2 (HAPLOGEN GmbH, priority 2017, dated 2021).
